Results: the NIST ThermoML archive (doi:10.1016/j.fluid.2005.05.029)

Assay: excess molar enthalpy (molar enthalpy of mixing); xn = mol fraction of the nth substance listed
Details: Liquid, Flow calorimetry

CCOC(=O)OCC [diethyl carbonate] + O=C=O
excess molar enthalpy [kcal/mol]
Details	298.15 K	303.15 K	308.15 K
5000 kPa, x2 = 0.1103	–	-0.299	-0.335
5000 kPa, x2 = 0.2074	-0.57	-0.577	-0.627
5000 kPa, x2 = 0.2936	-0.816	-0.815	-0.833
5000 kPa, x2 = 0.3706	-1.03	-1.06	-1.06
5000 kPa, x2 = 0.4398	-1.22	-1.24	-1.24
5000 kPa, x2 = 0.5023	-1.4	-1.4	-1.41
5000 kPa, x2 = 0.5591	-1.53	-1.55	–
5000 kPa, x2 = 0.6109	-1.65	-1.67	-1.68
5000 kPa, x2 = 0.6583	-1.78	-1.79	-1.8
5000 kPa, x2 = 0.7019	-1.89	-1.89	-1.9
5000 kPa, x2 = 0.7184	–	–	-1.94
5000 kPa, x2 = 0.7264	–	–	-1.95
5000 kPa, x2 = 0.7343	–	–	-1.85
5000 kPa, x2 = 0.7421	-1.97	-1.98	-1.81
5000 kPa, x2 = 0.7794	-2.04	-2.03	-1.54
5000 kPa, x2 = 0.7935	–	-2.05	–
5000 kPa, x2 = 0.8004	–	-1.98	–
5000 kPa, x2 = 0.8139	-2.1	-1.86	–
5000 kPa, x2 = 0.846	-2.14	-1.51	-1.07
5000 kPa, x2 = 0.8522	-2.07	–	–
5000 kPa, x2 = 0.876	-1.76	-1.21	–
5000 kPa, x2 = 0.904	-1.36	-0.922	-0.65
5000 kPa, x2 = 0.9303	-0.998	-0.722	–
5000 kPa, x2 = 0.9549	-0.638	-0.439	-0.297
5000 kPa, x2 = 0.9781	-0.308	-0.208	–
5000 kPa, x2 = 0.9957	–	–	-0.00454
5500 kPa, x2 = 0.111	-0.3	-0.304	-0.305
5500 kPa, x2 = 0.2086	-0.571	-0.574	-0.579
5500 kPa, x2 = 0.2951	-0.804	-0.802	–
5500 kPa, x2 = 0.3723	-0.995	-1	-1.02
5500 kPa, x2 = 0.4416	-1.16	-1.17	–
5500 kPa, x2 = 0.5041	-1.32	-1.32	-1.37
5500 kPa, x2 = 0.5609	-1.44	-1.46	–
5500 kPa, x2 = 0.6126	–	-1.6	-1.64
5500 kPa, x2 = 0.66	-1.68	-1.71	-1.75
5500 kPa, x2 = 0.7035	-1.75	-1.79	-1.84
5500 kPa, x2 = 0.7199	–	–	-1.87
5500 kPa, x2 = 0.7436	-1.84	-1.86	-1.92
5500 kPa, x2 = 0.7587	–	–	-1.95
5500 kPa, x2 = 0.7661	–	–	-1.95
5500 kPa, x2 = 0.7734	–	–	-1.97
5500 kPa, x2 = 0.7806	-1.91	-1.94	-1.95
5500 kPa, x2 = 0.7947	–	–	-1.82
5500 kPa, x2 = 0.815	-1.96	-2.01	-1.64
5500 kPa, x2 = 0.8281	–	-2.03	–
5500 kPa, x2 = 0.8345	–	-2.03	–
5500 kPa, x2 = 0.8408	–	-2.03	–
5500 kPa, x2 = 0.847	-2.01	-1.93	-1.36
5500 kPa, x2 = 0.8768	-2.04	-1.52	–
5500 kPa, x2 = 0.9047	-2.07	-1.21	-0.841
5500 kPa, x2 = 0.91	-2.07	–	–
5500 kPa, x2 = 0.9153	-2.04	–	–
5500 kPa, x2 = 0.9205	-1.95	–	–
5500 kPa, x2 = 0.9308	-1.69	-0.875	–
5500 kPa, x2 = 0.9553	-1.08	-0.564	-0.396
5500 kPa, x2 = 0.9783	-0.498	-0.265	–
6000 kPa, x2 = 0.2097	–	–	-0.562
6000 kPa, x2 = 0.2965	–	–	-0.778
6000 kPa, x2 = 0.3739	–	–	-0.994
6000 kPa, x2 = 0.4433	–	–	-1.17
6000 kPa, x2 = 0.5058	–	–	-1.32
6000 kPa, x2 = 0.5626	–	–	-1.45
6000 kPa, x2 = 0.6142	–	–	-1.57
6000 kPa, x2 = 0.6615	–	–	-1.66
6000 kPa, x2 = 0.7049	–	–	-1.76
6000 kPa, x2 = 0.7448	–	–	-1.83
6000 kPa, x2 = 0.7818	–	–	-1.9
6000 kPa, x2 = 0.7958	–	–	-1.92
6000 kPa, x2 = 0.816	–	–	-1.94
6000 kPa, x2 = 0.829	–	–	-1.95
6000 kPa, x2 = 0.8354	–	–	-1.91
6000 kPa, x2 = 0.8479	–	–	-1.76
6000 kPa, x2 = 0.9052	–	–	-1.09
6000 kPa, x2 = 0.9555	–	–	-0.501
6500 kPa, x2 = 0.1123	–	–	-0.281
6500 kPa, x2 = 0.2108	–	–	-0.536
6500 kPa, x2 = 0.2978	–	–	-0.751
6500 kPa, x2 = 0.3753	–	–	-0.972
6500 kPa, x2 = 0.4448	–	–	-1.1
6500 kPa, x2 = 0.5074	–	–	-1.25
6500 kPa, x2 = 0.5641	–	–	-1.37
6500 kPa, x2 = 0.6157	–	–	-1.47
6500 kPa, x2 = 0.6629	–	–	-1.58
6500 kPa, x2 = 0.7062	–	–	-1.67
6500 kPa, x2 = 0.746	–	–	-1.73
6500 kPa, x2 = 0.7828	–	–	-1.76
6500 kPa, x2 = 0.817	–	–	-1.8
6500 kPa, x2 = 0.8487	–	–	-1.83
6500 kPa, x2 = 0.8782	–	–	-1.82
6500 kPa, x2 = 0.895	–	–	-1.7
6500 kPa, x2 = 0.9058	–	–	-1.56
6500 kPa, x2 = 0.9215	–	–	-1.27
6500 kPa, x2 = 0.9316	–	–	-1.13
6500 kPa, x2 = 0.9415	–	–	-0.986
6500 kPa, x2 = 0.9558	–	–	-0.69
6500 kPa, x2 = 0.9786	–	–	-0.329
6500 kPa, x2 = 0.9916	–	–	-0.111
